Source: patent US20240226225A1 (Protagonist Therapeutics, Inc., priority 2021, published 2024)
pIC50: −log10 of the molar value. Starred links: 1 amine or outer side, 2 acyl side, 3 side chain; linkers in the order of their positions; H or OH if unused. Positions of bridges follow the written chain, without caps; N, C: chain ends. Non-standard residues stand in square brackets, D forms with d. Residues, ends and D or L forms follow the SMILES beside them. Groups on a side chain read outwards from the residue. *: point of attachment. Ala(1H-tetrazol-5-yl) = N[C@@H](Cc1nnn[nH]1)C(=O)O; Phe(3,4-Cl2) = N[C@@H](Cc1ccc(Cl)c(Cl)c1)C(=O)O; Phe(2,4-Cl2) = N[C@@H](Cc1ccc(Cl)cc1Cl)C(=O)O; Phe(3,5-F2) = N[C@@H](Cc1cc(F)cc(F)c1)C(=O)O; C18 diacid = O=C(O)CCCCCCCCCCCCCCCCC(=O)*; Dip = N[C@H](C(=O)O)C(c1ccccc1)c1ccccc1; γGlu = O=C(O)[C@H](CCC(=O)[*:2])N[*:1]; β3hF = N[C@H](CC(=O)O)Cc1ccccc1; Isovaleryl = CC(C)CC(=O)*; AEEA = NCCOCCOCC(=O)O

The molecules below were run against T1, ferroportin (Homo sapiens, UniProt Q9NP59) (assay: T47D cell-based ferroportin internalization assay in presence of 0.5% mouse serum albumin (MSA), AF647-conjugated detection peptide, flow cytometry). Conditions: T47D cells, 1 hr incubation.
T1 sequence (Q9NP59 1-571): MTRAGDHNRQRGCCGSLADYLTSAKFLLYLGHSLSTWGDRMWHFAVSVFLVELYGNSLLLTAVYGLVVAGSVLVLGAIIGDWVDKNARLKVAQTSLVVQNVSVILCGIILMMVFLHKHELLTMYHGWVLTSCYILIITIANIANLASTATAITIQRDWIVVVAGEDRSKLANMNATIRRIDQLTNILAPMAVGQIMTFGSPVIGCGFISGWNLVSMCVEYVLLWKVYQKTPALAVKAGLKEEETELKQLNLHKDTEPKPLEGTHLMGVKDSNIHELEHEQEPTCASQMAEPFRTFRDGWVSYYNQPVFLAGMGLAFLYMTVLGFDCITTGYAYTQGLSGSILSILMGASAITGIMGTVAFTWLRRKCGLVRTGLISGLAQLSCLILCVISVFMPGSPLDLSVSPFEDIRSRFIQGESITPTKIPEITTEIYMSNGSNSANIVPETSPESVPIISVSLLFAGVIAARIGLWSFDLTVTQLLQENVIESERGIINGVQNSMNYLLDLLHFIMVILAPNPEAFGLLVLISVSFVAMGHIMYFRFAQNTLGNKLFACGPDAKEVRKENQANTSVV
Design: a human breast carcinoma adherent cell line which endogenously expresses ferroportin; host or cells: T47D
Protocol: The potency of the peptides in causing ferroportin internalization was evaluated in a T47D cell-based assay. […] In this internalization assay, the potency of the test peptides was evaluated in presence of serum albumin which is the main protein component in the blood. T47D cells were maintained in RPMI media (containing required amount of fetal bovine serum) and regularly sub-cultured. In preparation for the assay, the cells were seeded in 96-well plates at a density of 80-100 k cells per well in 100 ul volume and allowed to rest overnight. On the next day, test peptides were first prepared in dilution series (10-point series, starting concentration of ˜5 μM, typically 3-4×fold dilution steps), all with 0.5% mouse serum albumin (MSA purified from mouse serum; Sigma, A3139). The test peptide dilution series were allowed to incubate at room temperature for 30 min. Then the media was aspirated from the 96-well cell plate and test peptide dilution series were added. After 1 hr incubation, the media with test peptides was aspirated out and AF647-conjugated detection peptide was added at fixed concentration of 200 nM. The AF647-conjugated detection peptide was previously verified to bind to ferroportin and cause its internalization. The cells were washed again after a 2 hr incubation in preparation for flow cytometry analysis. The Median Fluorescence Intensity (MFI) of the AF647-positive population was measured (after removing dead cells and non-singlets from the analysis). The MFI values were used to generate a dose-response curve and obtain IC50 potencies for the test peptides. The IC50 potencies were calculated by using 4-parameter non-linear fitting function in Graphpad Prism (Table 2A).

Row | SMILES | pIC50
1 | CC[C@H](C)[C@@H]1NC(=O)[C@@H](NC(=O)[C@@H]2CCCN2C(=O)[C@@H](NC(=O)[C@H](Cc2c[nH]cn2)NC(=O)[C@@H](NC(=O)[C@H](Cc2nn[nH]n2)NC(=O)CC(C)C)[C@@H](C)O)C(c2ccccc2)c2ccccc2)CSSC[C@H](C(N)=O)NC(=O)C[C@H](Cc2ccccc2)NC(=O)[C@H](CCCCNC(=O)COCCOCCNC(=O)COCCOCCNC(=O)CC[C@H](NC(=O)CCCCCCCCCCCCCCCCC(=O)O)C(=O)O)NC1=O [Compd 36, Isovaleric Acid-[Tet1]-T-H-[Dpa]-P-[Cys]-I-[Lys(1PEG2_1PEG2_IsoGlu_C18_Diacid)]-[bhPhe]-d[Cys]-NH2] (Isovaleryl-[Ala(1H-tetrazol-5-yl)]TH[Dip]PCIK([AEEA-AEEA-γGlu-C18 diacid])[β3hF][dC]-NH2; disulfide 6-10) | 6.30 to 7.00

What follows are molecules tested against T1, ferroportin (assay: FPN activity assay: internalization/degradation of ferroportin-GFP in stably transfected HEK293 cells, decrease in GFP fluorescence). Conditions: HEK293 cells stably expressing ferroportin-GFP, at least 18 hours incubation; read-out: FPN EC50.
Type: cell-based
Design: expressed in transfected cells

Row | DC50 [nM] | SMILES
2 | 10 to 100 | CC[C@H](C)[C@@H]1NC(=O)[C@@H](NC(=O)[C@@H]2CCCN2C(=O)[C@@H](NC(=O)[C@H](Cc2c[nH]cn2)NC(=O)[C@@H](NC(=O)[C@H](Cc2nn[nH]n2)NC(=O)CC(C)C)[C@@H](C)O)C(c2ccccc2)c2ccccc2)CSSC[C@H](C(N)=O)NC(=O)C[C@H](Cc2ccccc2)NC(=O)[C@H](CCCCNC(=O)COCCOCCNC(=O)COCCOCCNC(=O)CC[C@H](NC(=O)CCCCCCCCCCCCCCCCC(=O)O)C(=O)O)NC1=O [Compd 36, Isovaleric Acid-[Tet1]-T-H-[Dpa]-P-[Cys]-I-[Lys(1PEG2_1PEG2_IsoGlu_C18_Diacid)]-[bhPhe]-d[Cys]-NH2] (Isovaleryl-[Ala(1H-tetrazol-5-yl)]TH[Dip]PCIK([AEEA-AEEA-γGlu-C18 diacid])[β3hF][dC]-NH2; disulfide 6-10)
3 | 10 to 100 | CC[C@H](C)[C@@H]1NC(=O)[C@@H](NC(=O)[C@@H]2CCCN2C(=O)[C@H](Cc2ccccc2)NC(=O)[C@H](Cc2c[nH]cn2)NC(=O)[C@@H](NC(=O)[C@H](Cc2nn[nH]n2)NC(=O)CC(C)C)[C@@H](C)O)CSSC[C@@H](C(=O)N[C@@H](CCCCN)C(N)=O)NC(=O)CNC(=O)[C@H](CCCCN)NC(=O)[C@H](CO)NC(=O)[C@H](CCCNC(=N)N)NC(=O)[C@@H]2CCCN2C(=O)[C@H](CCC(=O)O)NC(=O)[C@H](Cc2ccccc2)NC(=O)[C@H](CCCCNC(=O)COCCOCCNC(=O)COCCOCCNC(=O)CC[C@H](NC(=O)CCCCCCCCCCCCCCCCC(=O)O)C(=O)O)NC1=O [Compd 3, Isovaleric Acid-[Tet1]-T-H-F-P-[Cys]-I-[Lys(1PEG2_1PEG2_IsoGlu_C18_Diacid)]-F-E-P-R-S-K-G-[Cys]-K-NH2] (Isovaleryl-[Ala(1H-tetrazol-5-yl)]THFPCIK([AEEA-AEEA-γGlu-C18 diacid])FEPRSKGCK-NH2; disulfide 6-16)
4 | 100 to 500 | CC[C@H](C)[C@@H]1NC(=O)[C@@H](NC(=O)[C@@H]2CCCN2C(=O)[C@H](Cc2ccc(Cl)c(Cl)c2)NC(=O)[C@H](Cc2c[nH]cn2)NC(=O)[C@@H](NC(=O)[C@H](Cc2nn[nH]n2)NC(=O)CC(C)C)[C@@H](C)O)CSSC[C@@H](C(N)=O)NC(=O)[C@@H](CCCCN)NC(=O)C[C@H](Cc2ccccc2)NC(=O)[C@H](CCCCNC(=O)COCCOCCNC(=O)COCCOCCNC(=O)CC[C@H](NC(=O)CCCCCCCCCCCCCCCCC(=O)O)C(=O)O)NC1=O [Compd 25, Isovaleric Acid-[Tet1]-T-H-[Phe_34diCl]-P-[Cys]-I-[Lys(1PEG2_1PEG2_IsoGlu_C18_Diacid)]-[bhPhe]-[(D)Lys]-[Cys]-NH2] (Isovaleryl-[Ala(1H-tetrazol-5-yl)]TH[Phe(3,4-Cl2)]PCIK([AEEA-AEEA-γGlu-C18 diacid])[β3hF][dK]C-NH2; disulfide 6-11)
5 | 100 to 500 | CC[C@H](C)[C@@H]1NC(=O)[C@@H](NC(=O)[C@@H]2CCCN2C(=O)[C@H](Cc2ccc(Cl)cc2Cl)NC(=O)[C@H](Cc2c[nH]cn2)NC(=O)[C@@H](NC(=O)[C@H](Cc2nn[nH]n2)NC(=O)CC(C)C)[C@@H](C)O)CSSC[C@@H](C(N)=O)NC(=O)[C@@H](CCCCN)NC(=O)C[C@H](Cc2ccccc2)NC(=O)[C@H](CCCCNC(=O)COCCOCCNC(=O)COCCOCCNC(=O)CC[C@H](NC(=O)CCCCCCCCCCCCCCCCC(=O)O)C(=O)O)NC1=O [Compd 26, Isovaleric Acid-[Tet1]-T-H-[Phe_24diCl]-P-[Cys]-I-[Lys(1PEG2_1PEG2_IsoGlu_C18_Diacid)]-[bhPhe]-[(D)Lys]-[Cys]-NH2] (Isovaleryl-[Ala(1H-tetrazol-5-yl)]TH[Phe(2,4-Cl2)]PCIK([AEEA-AEEA-γGlu-C18 diacid])[β3hF][dK]C-NH2; disulfide 6-11)
6 | > 500 | CC[C@H](C)[C@@H]1NC(=O)[C@@H](NC(=O)[C@@H]2CCCN2C(=O)[C@@H](NC(=O)[C@H](Cc2c[nH]cn2)NC(=O)[C@@H](NC(=O)[C@H](Cc2nn[nH]n2)NC(=O)CCCCN)[C@@H](C)O)C(c2ccccc2)c2ccccc2)CSSC[C@@H](C(N)=O)NC(=O)[C@@H](CCCCN)NC(=O)C[C@H](Cc2ccccc2)NC(=O)[C@H](CCCCNC(=O)COCCOCCNC(=O)COCCOCCNC(=O)CC[C@H](NC(=O)CCCCCCCCCCCCCCCCC(=O)O)C(=O)O)NC1=O [Compd 39, 5 AminoPentanoicAcid-[Tet1]-T-H-[Dpa]-P-[Cys]-I-[Lys(1PEG2_1PEG2_IsoGlu_C18_Diacid)]-[bhPhe]-[(D)Lys]-[Cys]-NH2]
7 | 100 to 500 | CC[C@H](C)[C@@H]1NC(=O)[C@@H](NC(=O)[C@@H]2CCCN2C(=O)[C@H](Cc2cc(F)cc(F)c2)NC(=O)[C@H](Cc2c[nH]cn2)NC(=O)[C@@H](NC(=O)[C@H](Cc2nn[nH]n2)NC(=O)CC(C)C)[C@@H](C)O)CSSC[C@@H](C(N)=O)NC(=O)[C@@H](CCCCN)NC(=O)C[C@H](Cc2ccccc2)NC(=O)[C@H](CCCCNC(=O)COCCOCCNC(=O)COCCOCCNC(=O)CC[C@H](NC(=O)CCCCCCCCCCCCCCCCC(=O)O)C(=O)O)NC1=O [Compd 19, Isovaleric Acid-[Tet1]-T-H-[Phe_35diF]-P-[Cys]-I-[Lys(1PEG2_1PEG2_IsoGlu_C18_Diacid)]-[bhPhe]-[(D)Lys]-[Cys]-NH2] (Isovaleryl-[Ala(1H-tetrazol-5-yl)]TH[Phe(3,5-F2)]PCIK([AEEA-AEEA-γGlu-C18 diacid])[β3hF][dK]C-NH2; disulfide 6-11)

Further lines, the molecule ahead of its results:

Row | SMILES | DC50 [nM]
8 | CCCCCCCCCCCCCCCC(=O)NCCOCCOCCOCCOCCOCCOCCOCCOCCOCCOCCOCCOCCC(=O)NCCCC[C@@H]1NC(=O)[C@H](Cc2ccccc2)NC(=O)[C@H](CCCCN)NC(=O)[C@H]([C@@H](C)CC)NC(=O)[C@@H](NC(=O)[C@@H]2CCCN2C(=O)[C@H](Cc2ccccc2)NC(=O)[C@H](Cc2c[nH]cn2)NC(=O)[C@@H](NC(=O)[C@H](CC(=O)O)NC(=O)CC(C)C)[C@@H](C)O)CSSC[C@@H](C(=O)N[C@@H](CCCCN)C(N)=O)NC(=O)CNC(=O)[C@H](CCCCN)NC(=O)[C@H](CO)NC(=O)[C@H](CCCNC(=N)N)NC(=O)[C@@H]2CCCN2C1=O [compound 1, reference compound] | 10 to 100
9 | CC[C@H](C)[C@@H]1NC(=O)[C@@H](NC(=O)[C@@H]2CCCN2C(=O)[C@@H](NC(=O)[C@H](Cc2c[nH]cn2)NC(=O)[C@@H](NC(=O)[C@H](Cc2nn[nH]n2)NC(=O)CCCN)[C@@H](C)O)C(c2ccccc2)c2ccccc2)CSSC[C@@H](C(N)=O)NC(=O)[C@@H](CCCCN)NC(=O)C[C@H](Cc2ccccc2)NC(=O)[C@H](CCCCNC(=O)COCCOCCNC(=O)COCCOCCNC(=O)CC[C@H](NC(=O)CCCCCCCCCCCCCCCCC(=O)O)C(=O)O)NC1=O [Compd 38, Gaba-[Tet1]-T-H-[Dpa]-P-[Cys]-I-[Lys(1PEG2_1PEG2_IsoGlu_C18_Diacid)]-[bhPhe]-[(D)Lys]-[Cys]-NH2] | > 500
10 | CC[C@H](C)[C@@H]1NC(=O)[C@@H](NC(=O)[C@@H]2CCCN2C(=O)[C@@H](NC(=O)[C@H](Cc2cnc[nH]2)NC(=O)[C@@H](NC(=O)[C@H](CC2N=NN=N2)NC(=O)c2ccccc2)[C@@H](C)O)C(c2ccccc2)c2ccccc2)CSSC[C@@H](C(N)=O)NC(=O)[C@@H](CCCCN)NC(=O)C[C@H](Cc2ccccc2)NC(=O)[C@H](CCCCNC(=O)COCCOCCNC(=O)COCCOCCNC(=O)CC[C@H](NC(=O)CCCCCCCCCCCCCCCCC(=O)O)C(=O)O)NC1=O [Compd 42, Benzyl-[Tet1]-T-H-[Dpa]-P-[Cys]-I-[Lys(1PEG2_1PEG2_IsoGlu_C18_Diacid)]-[bhPhe]-[(D)Lys]-[Cys]-NH2] | 10 to 100
11 | CC[C@H](C)[C@@H]1NC(=O)[C@@H](NC(=O)[C@@H]2CCCN2C(=O)[C@@H](NC(=O)[C@H](Cc2c[nH]cn2)NC(=O)[C@@H](NC(=O)[C@H](Cc2nn[nH]n2)NC(=O)CC(C)C)[C@@H](C)O)C(c2ccccc2)c2ccccc2)CSSC[C@@H](C(=O)O)NC(=O)C[C@H](Cc2ccccc2)NC(=O)[C@H](CCCCNC(=O)COCCOCCNC(=O)COCCOCCNC(=O)CC[C@H](NC(=O)CCCCCCCCCCCCCCCCC(=O)O)C(=O)O)NC1=O [Compd 37, Isovaleric Acid-[Tet1]-T-H-[Dpa]-P-[Cys]-I-[Lys(1PEG2_1PEG2_IsoGlu_C18_Diacid)]-[bhPhe]-[Cys]] (Isovaleryl-[Ala(1H-tetrazol-5-yl)]TH[Dip]PCIK([AEEA-AEEA-γGlu-C18 diacid])[β3hF]C-OH; disulfide 6-10; C-terminus assumed) | > 500
